How the values were obtained:
[1] = Degradation of prodrugs and release of parent drug in rat plasma; format: in vitro ADME; conditions: male, Hannover-Janvier RjHan, rat plasma (Li-heparin), 37° C., percent area of prodrug at t0
Method in brief: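 Prodrug spiked into male Hannover rat Li-heparin plasma at 37 °C. Samples at 0.17–4 h quenched in acetonitrile/citric acid pH 3, then analysed by HPLC, with HPLC-MS at final time point. Prodrug loss and parent drug appearance given as percent area of prodrug at t0.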

[2] = tested on: Dermacentor variabilis nymph; assay: Antiparasitic activity after administration to rats: ticks; format: in vivo; conditions: 11.97 mg/kg sc, Dermacentor variabilis nymph
Method in brief: (§1)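 Compounds dissolved in glycerol formal, given i.p. or s.c. to rats, 5 per group. Infestation with 30 D. variabilis nymphs (days −2, 7, 14, 21, 28, 35) and 30 adult C. felis (days −1, 8, 15, 22, 29, 36), with counts on days 2, 9, 16, 23, 30, 37. Percent efficacy compares mean live attached ticks or live fleas with a placebo-treated group.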

[3] = Degradation of prodrugs and release of parent drug in dog plasma; format: in vitro ADME; conditions: male, Beagle, dog plasma (EDTA stabilized), 37° C., percent area of prodrug at t0
Protocol: Measurement of Release of Parent Drug in Dog Plasma 1 mg of the test compound was dissolved in 0.5 mL acetonitrile/dimethylsulfoxide 9:1. For complete dissolution the HPLC vial was shaken and treated with ultrasound. 20 μL of this solution were added to 1 mL of dog plasma (Beagle, male; EDTA stabilized) under vortexing at a temperature of 37° C. Aliquots (100 μL each) were taken at 0.17, 0.5, 1, 1.5, 2 and 4 hours. Each aliquot was transferred to a vial containing 300 μL of acetonitrile/citric acid buffer pH 3 80:20. These solutions were centrifuged at 5000 rpm for 10 minutes. The supernatant was analysed by HPLC (Method 8) to determine the amount of the test compound. In addition, the reaction mixture was analysed by method 9 (HPLC-MS) at the final timepoint. Both decrease of the prodrug concentration and increase of parent drug concentration were monitored. All data is given as percent area of the prodrug at t0.

[4] = Measurement of stability of prodrugs in buffer at pH 7.4; format: physicochemical; conditions: PBS buffer pH 7.4, 37° C., HPLC peak area, read-out: % Recovery after 24 h (stability at pH 7.4)
Method in brief: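 Test compound (0.15 mg) in DMSO/acetonitrile was mixed with PBS pH 7.4 and held at 37 °C for 24 h. Remaining compound was followed by HPLC as peak area percentage of total area. The final time point was also analysed by HPLC-MS.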

[5] = Evaluation of pharmacokinetics in vivo (rat); conditions: concentration of Parent Drug A after admin. of the named substance
Protocol: Evaluation of Pharmacokinetics (In Vivo) To evaluate the pharmacokinetics of test substances in vivo, these test substances are dissolved in appropriate formulation vehicles (ethanol, dimethyl sulfoxide, PEG400, glycerol formal etc.), or mixtures thereof. The test substances are then administered to rats or dogs intravenously, orally or subcutaneously. The intravenous application is performed as bolus. Administered doses range usually between 0.1 to 5 mg/kg, however, doses for subcutaneous and oral administration can exceed this range up to doses of 30 mg/kg. Blood samples are retrieved via a catheter, exsanguination or venous puncture in vials containing appropriate anticoagulants, such as lithium heparinate or potassium EDTA. Plasma is generated from the blood via centrifugation. Blood samples are taken over an appropriate time interval, usually lasting up to 144 h after administration. If necessary, samples from later time points can also be taken. If possible, time points are chosen so that the initial absorption phase, the maximum plasma concentration (Cmax), and exposure within a certain time interval (AUC(0-t))aer described. Furthermore, it is possible to also retrieve organ-, tissue- and urine samples. The quantitative measurement of the test substances in the samples is performed using calibration curves in the respective matrices. The protein content of the samples is precipitated using acetonitrile or methanol. Thereafter, the samples are separated using HPLC in combination with reversed phase chromatography columns. The HPLC system is coupled to a triple quadrupole mass spectrometer via an electrospray interface. The evaluation of the plasma concentration/time profiles are afterwards evaluated using a validated pharmacokinetics evaluation program. […] Relative bioavailability (Frel) was used to describe the exposure of parent drug after prodrug administration compared to the exposure of parent drug after direct administration of compound A which was normalised to 100%.

[6] = tested on: Ctenocephalides felis adult; assay: Antiparasitic activity after administration to rats: fleas; format: in vivo; conditions: 11.97 mg/kg sc, Ctenocephalides felis adult
Method in brief: as §1

`N#CC1(N(COC(=O)/C=C/C(=O)O)C(=O)c2cc(-c3cnn(-c4c(Cl)cc(C(F)(C(F)(F)F)C(F)(F)F)cc4OC(F)(F)F)c3)ccc2Cl)CC1` [Example 13, (2E)-4-{[(2-Chloro-5-{1-[2-chloro-4-(1,1,1,2,3,3,3-heptafluoropropan-2-yl)-6-(trifluoromethoxy)phenyl]-1H-pyrazol-4-yl}benzoyl)(1-cyanocyclopropyl)amino]methoxy}-4-oxobut-2-enoic acid] showed a recovery at 0.17 h, 39 µg/mL ([1]; 0.17 h) of 96%, a recovery at 0.5 h, 39 µg/mL ([1]; 0.5 h) of 85% and a recovery at 1 h, 39 µg/mL ([1]; 1 h) of 63%. It also gave a recovery at 1.5 h, 39 µg/mL ([1]; 1.5 h) of 49%, a recovery at 2 h, 39 µg/mL ([1]; 2 h) of 35% and a recovery at 4 h, 39 µg/mL ([1]; 4 h) of 14%. The “In-vivo Efficacy SD2” value ([2]; study day 2) was 100%, the “In-vivo Efficacy SD9” value ([2]; study day 9) was 100% and the “In-vivo Efficacy SD16” value ([2]; study day 16) was 99%. For the same compound, the “In-vivo Efficacy SD23” value ([2]; study day 23) was 77%, the “In-vivo Efficacy SD30” value ([2]; study day 30) was 59% and the “In-vivo Efficacy SD37” value ([2]; study day 37) was 49%. The recovery at 0.17 h, 39 µg/mL ([3]; 0.17 h) was 95%, the recovery at 0.5 h, 39 µg/mL ([3]; 0.5 h) was 79% and the recovery at 1 h, 39 µg/mL ([3]; 1 h) was 51%. For the same compound, the recovery at 1.5 h, 39 µg/mL ([3]; 1.5 h) was 33%, the recovery at 2 h, 39 µg/mL ([3]; 2 h) was 18% and the recovery at 4 h, 39 µg/mL ([3]; 4 h) was 0%. The recovery at 24 h, 0.1 mg/mL [4] was 97%, the “AUC(0-144 h)norm of parent drug A” value ([5]; iv bolus) was 7.3 kg·h/L and the “AUC(0-144 h)norm of parent drug A” value ([5]; sc) was 5.9 kg·h/L. The “In-vivo Efficacy SD2” value ([6]; study day 2) was 100%, the “In-vivo Efficacy SD9” value ([6]; study day 9) was 97% and the “In-vivo Efficacy SD16” value ([6]; study day 16) was 96%. For the same compound, the “In-vivo Efficacy SD23” value ([6]; study day 23) was 79%, the “In-vivo Efficacy SD30” value ([6]; study day 30) was 57% and the “In-vivo Efficacy SD37” value ([6]; study day 37) was 51%.

Source: patent publication US20220306585A1, “PYRAZOLE DERIVATIVES FOR CONTROLLING ARTHROPODS” (Bayer Animal Health GmbH, priority 2019, published 2022)
